According to US20130217681A1, “METHOD AND COMPOSITION FOR WEIGHT-GAIN MANAGEMENT” (TECHNION RESEARCH AND DEVELOPMENT FOUNDATION LTD., priority 2010, published 2013):
“And” between values parts separate entries of the source, which are not always exact repeats. Identical values can stand only once. Like-named read-outs stand apart in the source and are kept apart here.

Key:
animal models of obesity = settings: cited from earlier work
[1] = olanzapine-treated first episode schizophrenia patients, cited from earlier work
[2] = betahistine in a small group (n=7) of olanzapine-treated first-episode schizophrenia patients; assay type: in vivo, Human
Description: Similarly, betahistine was associated with a modest attenuation of weight gain in a small group (n=7) of olanzapine-treated first-episode schizophrenia patients: the betahistine group 3.86 kg versus the placebo group 5.03 kg.
Similarly, betahistine was associated with a modest attenuation of weight gain in a small group (n=7) of olanzapine-treated first-episode schizophrenia patients: the betahistine group gained 3.86 kg versus the placebo group 5.03 kg.

[3] = cited from earlier work; for weight gain, mean (SD): olanzapine-treated patients, reboxetine 4 mg/day, 31 patients reboxetine, 29 placebo
[4] = in 10 weeks; cited from earlier work
[5] = baseline to endpoint, 6 weeks
Description: Human patients (male and female, age 18-45) hospitalized at Tirat Carmel Mental Health Center (Tirat Carmel, Israel) were screened. Eligible patients were interviewed using the Structured Clinical Interview for DSM-IV-TR Axis I Disorders, Patient Edition, and those who meet DSM-IV-TR criteria for schizophrenic or schizophreniform disorder were enrolled.
A double-blind, placebo-controlled, randomized design was used in the study.

Compound: CNCCc1ccccn1 [betahistine]
- food intake (animal models of obesity): inhibit food intake
- tolerability [1]: safe, well tolerated
- effect on weight gain ([1]; small sample, open design): prevents weight gain
- weight gain, mean (SD) [2]: 3.86 kg
- weight gain, mean (SD) ([2]; listed as Olanzapine+betahistine): 3.86 (0.9) kg

Compound: Cc1cc2c(s1)Nc1ccccc1N=C2N1CCN(C)CC1 [olanzapine + placebo, olanzapine]
- weight gain, mean (SD) [3]: 4.91 (2.45) kg
- weight gain induced in treated patients [4]: 3.5 kg
- patients who gained at least 7% of their initial weight (clinically significant weight gain) (6 week trial, 30 vs 13 patients): 46.1%
- weight gain during the trial, average (SD) (6 week trial, olanzapine 10 mg, betahistine 48 mg/day, reboxetine 4 mg, Example 1): 5.5 (2.7) kg
- body weight (Week 1): 70.4 kg
- increase in body weight, Δ from baseline (Week 1): 1.2 kg^
- body weight (Week 2): 71.3 kg
- increase in body weight, Δ from baseline (Week 2): 2.3 kg
- body weight (Week 3): 72 kg
- increase in body weight, Δ from baseline (Week 3): 3.8 kg
- body weight (Week 4): 73.4 kg
- increase in body weight, Δ from baseline (Week 4): 4.3 kg
- body weight (Week 5): 74.2 kg
- increase in body weight, Δ from baseline (Week 5): 5.4 kg
- body weight (Week 6): 75.4 kg
- increase in body weight, Δ from baseline (Week 6): 5.5 kg
- change in triglyceride level [5]: almost two-fold increase

Compound: CCOc1ccccc1OC(c1ccccc1)C1CNCCO1 (centres unmarked) [reboxetine]
- weight-attenuating effect ([3]; low-dose 4 mg/day, schizophrenic patients treated with olanzapine): significant weight-attenuating effect
- weight gain, mean (SD) [3]: 3.31 (2.73) kg and 3.31 kg
- weight gain, mean (SD) ([3]; listed as Olanzapine+reboxetine): 3.31 (2.73) kg
- tolerability ([3]; reboxetine-olanzapine treated patients): safe and well tolerated and no clinically significant side effects were found
